Read-outs that look alike come from different tables or passages of the source.
Tests used:
[1] = system: A. non-baumannii isolates (n = 87); test: MIC, broth microdilution (EUCAST), A. non-baumannii isolates; type: cell-based, Acinetobacter spp. (non-baumannii); conditions: for MIC: read-out: MIC
From the text: The bacterial strains used in this study comprised 208 clinical isolates from the Spanish National Acinetobacter spp. 2020 Multicenter Collection, which was previously characterized in detail by our research group, including whole-genome sequencing, phylogenetics studies, clonal dynamics, and resistance mechanisms ([2], [29]). Additionally, a collection of A. baumannii ATCC 17978 transformants coding the blaOXA-23, blaOXA-24/40, blaOXA-51, blaOXA-58, blaOXA-143, and blaOXA-201 genes, previously constructed and described by our group ([30]), was used to determine the activity of enmetazobactam against strains carrying the main CHDLs of A. baumannii.
The antimicrobial susceptibility of the 208 Acinetobacter spp. isolates was assessed using the broth microdilution method, as described in the European Committee on Antimicrobial Susceptibility Testing (EUCAST) v.15 guidelines (http://www.eucast.org/clinical_breakpoints). […] MICs for enmetazobactam alone were assessed as well. […] Subsequently, MIC testing was also conducted with a collection of A. baumannii ATCC 17978 transformants expressing clinically relevant OXA-like carbapenemase genes.
The A. baumannii ATCC 19606 strain was used as the reference strain in all susceptibility experiments, in duplicate assays. Antibiotics were purchased from Sigma-Aldrich, except enmetazobactam and durlobactam, which were obtained from Advanz Pharma and MedChemExpress, respectively.

[2] = system: A. baumannii ATCC 19606 cells; test: Cell morphology assay, bright-field microscopy; type: cell-based, Acinetobacter baumannii
Procedure: In order to confirm the involvement of PBPs as targets of enmetazobactam, cell morphology assays involving exposure to enmetazobactam and sulbactam were performed following the methodology described in Supplementary materials and methods.
To confirm the involvement of PBPs as targets of enmetazobactam, the cellular morphology of A. baumannii ATCC 19606 reference strain was analyzed after exposure to the compound at different concentrations. Bright-field microscopy was used to monitor the cell morphology. […] For microscopic visualization, aliquots of each sample were obtained, stained with crystal violet solution and observed using an Olympus BX61 microscope (Olympus).
Changes in cell morphology were determined on the basis of alterations in septal integrity, abnormal elongation, spheroplast formation and filamentation, patterns previously associated with the selective inhibition of PBP1, PBP2 and PBP3 in Gram-negative bacilli. Specifically, PBP1 inhibition has been linked to cell lysis, PBP2 inhibition has been linked to spherification, and PBP3 inhibition to defective cell division and filament formation (1, 2). The results were qualitatively compared across different treatments to infer the potential selectivity of enmetazobactam for specific PBPs.

[3] = Acinetobacter, A. non-baumannii isolates (n=87), ETZ fixed 8 mg/L in combinations

C[n+]1ccn(C[C@@]2(C)[C@H](C(=O)[O-])N3C(=O)C[C@H]3S2(=O)=O)n1 [enmetazobactam]
96.6: MIC distribution 4 ([1]; cumulative share of A. non-baumannii isolates (n=87) at MIC 4 mg/L, ETZ fixed 8 mg/L in combinations)
1 µg/mL: MIC ([1]; Acinetobacter pittii, isolate NO-Ab107, Acinetobacter pittii, in combinations ETZ fixed at 8 mg/L) | MIC ([1]; Acinetobacter proteolyticus, isolate NO-Ab210, Acinetobacter proteolyticus, in combinations ETZ fixed at 8 mg/L) | MIC ([1]; Acinetobacter radioresistens, isolate NO-Ab175, Acinetobacter radioresistens, in combinations ETZ fixed at 8 mg/L) | MIC ([1]; Acinetobacter ursingii, isolate NO-Ab64, Acinetobacter ursingii, in combinations ETZ fixed at 8 mg/L) | MIC ([1]; Acinetobacter ursingii, isolate NO-Ab120, Acinetobacter ursingii, in combinations ETZ fixed at 8 mg/L) | MIC ([1]; Acinetobacter ursingii, isolate NO-Ab221, Acinetobacter ursingii, in combinations ETZ fixed at 8 mg/L) | MIC ([1]; Acinetobacter ursingii, isolate NO-Ab222, Acinetobacter ursingii, in combinations ETZ fixed at 8 mg/L) | MIC ([1]; Acinetobacter, MBC set, isolate NO-Ab84, A. bereziniae)
98.9: MIC distribution 8 ([1]; cumulative share of A. non-baumannii isolates (n=87) at MIC 8 mg/L, ETZ fixed 8 mg/L in combinations)
2 µg/mL: MIC ([1]; Acinetobacter pittii, isolate NO-Ab105, Acinetobacter pittii, in combinations ETZ fixed at 8 mg/L) | MIC ([1]; Acinetobacter pittii, isolate NO-Ab106, Acinetobacter pittii, in combinations ETZ fixed at 8 mg/L) | MIC ([1]; Acinetobacter pittii, isolate NO-Ab111, Acinetobacter pittii, in combinations ETZ fixed at 8 mg/L) | MIC ([1]; Acinetobacter pittii, isolate NO-Ab113, Acinetobacter pittii, in combinations ETZ fixed at 8 mg/L) | MIC ([1]; Acinetobacter pittii, isolate NO-Ab118, Acinetobacter pittii, in combinations ETZ fixed at 8 mg/L) | MIC ([1]; Acinetobacter pittii, isolate NO-Ab135, Acinetobacter pittii, in combinations ETZ fixed at 8 mg/L) | MIC ([1]; Acinetobacter pittii, isolate NO-Ab145, Acinetobacter pittii, in combinations ETZ fixed at 8 mg/L) | MIC ([1]; Acinetobacter pittii, isolate NO-Ab154, Acinetobacter pittii, in combinations ETZ fixed at 8 mg/L) | MIC ([1]; Acinetobacter pittii, isolate NO-Ab164, Acinetobacter pittii, in combinations ETZ fixed at 8 mg/L) | MIC ([1]; Acinetobacter pittii, isolate NO-Ab178, Acinetobacter pittii, in combinations ETZ fixed at 8 mg/L) | MIC ([1]; Acinetobacter pittii, isolate NO-Ab197, Acinetobacter pittii, in combinations ETZ fixed at 8 mg/L) | MIC ([1]; Acinetobacter proteolyticus, isolate NO-Ab99, Acinetobacter proteolyticus, in combinations ETZ fixed at 8 mg/L) | MIC ([1]; Acinetobacter ursingii, isolate NO-Ab123, Acinetobacter ursingii, in combinations ETZ fixed at 8 mg/L) | MIC ([1]; Acinetobacter ursingii, isolate NO-Ab165, Acinetobacter ursingii, in combinations ETZ fixed at 8 mg/L) | MIC ([1]; Acinetobacter, MBC set, isolate NO-Ab88, A. dijkshoorniae) | MIC ([1]; Acinetobacter, isolate NO-Ab159, Acinetobacter iwoffii, in combinations ETZ fixed at 8 mg/L) | MIC50 [1, 3]
0: MIC distribution ≤0.06 ([1]; cumulative share of A. non-baumannii isolates (n=87) at MIC ≤0.06 mg/L, ETZ fixed 8 mg/L in combinations)
0.5 µg/mL: MIC ([1]; Acinetobacter radioresistens, isolate NO-Ab215, Acinetobacter radioresistens, in combinations ETZ fixed at 8 mg/L) | MIC ([1]; Acinetobacter ursingii, isolate NO-Ab87, Acinetobacter ursingii, in combinations ETZ fixed at 8 mg/L) | MIC ([1]; Acinetobacter ursingii, isolate NO-Ab103, Acinetobacter ursingii, in combinations ETZ fixed at 8 mg/L) | MIC ([1]; Acinetobacter ursingii, isolate NO-Ab126, Acinetobacter ursingii, in combinations ETZ fixed at 8 mg/L) | MIC ([1]; Acinetobacter ursingii, isolate NO-Ab166, Acinetobacter ursingii, in combinations ETZ fixed at 8 mg/L) | MIC ([1]; Acinetobacter ursingii, isolate NO-Ab214, Acinetobacter ursingii, in combinations ETZ fixed at 8 mg/L)
the filaments shortened in length: cell morphology ([2]; A. baumannii ATCC 19606, overnight exposure at 2× MIC)
1.1: MIC distribution 0.25 ([1]; cumulative share of A. non-baumannii isolates (n=87) at MIC 0.25 mg/L, ETZ fixed 8 mg/L in combinations)
elongated filaments: cell morphology ([2]; A. baumannii ATCC 19606, overnight exposure at 1× MIC)
100: MIC distribution 16 ([1]; cumulative share of A. non-baumannii isolates (n=87) at MIC 16 mg/L, ETZ fixed 8 mg/L in combinations) | MIC distribution 32 ([1]; cumulative share of A. non-baumannii isolates (n=87) at MIC 32 mg/L, ETZ fixed 8 mg/L in combinations)
29.9: MIC distribution 1 ([1]; cumulative share of A. non-baumannii isolates (n=87) at MIC 1 mg/L, ETZ fixed 8 mg/L in combinations)
9.2: MIC distribution 0.5 ([1]; cumulative share of A. non-baumannii isolates (n=87) at MIC 0.5 mg/L, ETZ fixed 8 mg/L in combinations)
4 µg/mL: MIC ([1]; Acinetobacter pittii, isolate NO-Ab151, Acinetobacter pittii, in combinations ETZ fixed at 8 mg/L) | MIC ([1]; Acinetobacter pittii, isolate NO-Ab157, Acinetobacter pittii, in combinations ETZ fixed at 8 mg/L) | MIC ([1]; Acinetobacter pittii, isolate NO-Ab162, Acinetobacter pittii, in combinations ETZ fixed at 8 mg/L) | MIC ([1]; Acinetobacter proteolyticus, isolate NO-Ab102, Acinetobacter proteolyticus, in combinations ETZ fixed at 8 mg/L) | MIC ([1]; Acinetobacter ursingii, isolate NO-Ab147, Acinetobacter ursingii, in combinations ETZ fixed at 8 mg/L) | MIC ([1]; Acinetobacter ursingii, isolate NO-Ab155, Acinetobacter ursingii, in combinations ETZ fixed at 8 mg/L) | MIC ([1]; Acinetobacter, isolate NO-Ab146, Acinetobacter iwoffii, in combinations ETZ fixed at 8 mg/L) | MIC90 [1, 3]
75.9: MIC distribution 2 ([1]; cumulative share of A. non-baumannii isolates (n=87) at MIC 2 mg/L, ETZ fixed 8 mg/L in combinations)
8 µg/mL: MIC ([1]; Acinetobacter ursingii, isolate NO-Ab119, Acinetobacter ursingii, in combinations ETZ fixed at 8 mg/L)
0.25 µg/mL: MIC ([1]; Acinetobacter ursingii, isolate NO-Ab3, Acinetobacter ursingii, in combinations ETZ fixed at 8 mg/L)

From paper PMC12888861, “Antibacterial activity of enmetazobactam against Acinetobacter spp.: a molecular dissection of mechanism of action and resistance determinants” (Antimicrobial Agents and Chemotherapy, 2025)
